The source of these data is patent US20100047191A1, “NOVEL USE” (priority 2007, published 2010).

Assay [1] is described as follows: Hydroxyapatite microplate erosion method (phosphate release after 1% citric acid, pH 3.8). Conditions: Example 7. The protocol: The wells of 96-well 200 μl microplates were filled with a concentrated suspension of high resolution hydroxyapatite (HA) powder (20 g HA in 200 ml acetone). The plates were allowed to dry under agitation (50 rpm on an orbital shaker) and then washed thoroughly with deionised water to remove any loose HA. For erosion experiments, the wells of the HA coated microplates were filled with deionised water and left to hydrate for 60 mins. The water was then removed and each of the 8 wells of one lane of the microplate filled with 200 μl of one of the agents to be tested. Each plate contained 12 lanes, so 6 agents could be tested in duplicate (at n=8) in each microplate. The actives were left in the wells for 30 mins under agitation, after which time the plates were again washed thoroughly with deionised water. The erosive challenge used for the study was an orange juice mimic, 1% citric acid, pH 3.8. The wells of the plate were exposed to 200 μl of the citric acid solution under agitation for 30 mins. After the acid challenge, 50 μl of the citric acid was removed from each well and placed into the corresponding well of a new 96-well microplate. 50 μl of vanadomolybdate reagent was then added to each well and after 5 mins, the absorbance of the solution in each well at 450 nm was read using a microplate plate reader. The test agents assessed using this technique were nanoparticulate zinc oxide aqueous suspension, 0.5 wt % in water, stabilised with both anionic and cationic dispersants (Nanoshield ZN-3008C and Nanoshield ZN-3014A respectively, both 70 nm average particle size and obtained from Nanophase Technologies, 1319 Marquette Drive, Romeoville, Ill. 60446. USA).
The chart contains data from one microplate, where treatments have been carried out in duplicate at n=8 each time, as described above. […] The positive control used was 300 ppm fluoride, and the negative control was deionised water.
An additional experiment was performed as described in Example 4, where the stabilising agent for the nanoparticulate zinc oxide (0.5 wt % suspension in water) was sodium hexametaphosphate (HMP) present in an amount of 2 wt % with respect to the zinc oxide (ie present in an amount of 0.01 wt %). […] The nanoparticulate zinc oxide was tested in the presence and absence of fluoride again, and at two different pH values (pH 7 and pH 9).
The experiments were performed as described in Example 4 above, using one side of a hydroxyapatite microplate (n=8). The test agents assessed in this case were a) 0.5 wt % Nanoshield ZN-3008C in water, b) 0.5 wt % zinc acetate, c) 0.5 wt % zinc citrate and d) 0.5 wt % zinc oxide (bulk material). […] Positive and negative controls used were 225 ppm fluoride and deionised water respectively.
A final hydroxyapatite microplate experiment was performed as described in Examples 4 and 5 where the stabilising agent for the nanoparticulate zinc oxide was either polyvinyl pyrrolidone (PVP) or Propylene glycol. […] The nanoparticulate zinc oxide was tested in the presence of fluoride in each case.

For assay [2] the following is noted: acidic acetate buffer at pH 4.5; cited from earlier work.
A short description of assay [3]: 20-day in vitro erosion cycling study (microhardness). Further details: species or system human. The text has this:
Human enamel specimens (3×3 mm) were ground and polished using silicon carbide paper. The top side of the specimens was ground using 1200-grit paper and then serially polished using 4000-grit paper followed by […] diamond polishing suspension. Each specimen was mounted on the end of an acrylic rod (¼″ diameter×2″ long) using superglue. The sides of each specimen were covered with an epoxy resin so that only the enamel surface was exposed. Eighteen specimens per group were used for the study. Each group was composed of 3 subgroups of 6 specimens. Initial hardness of the sound specimens was determined using a Vickers hardness indenter by applying a load of 200 g for 15 seconds. The average specimen microhardness was determined from four indentations on the surface of each specimen. Only specimens with a sound surface hardness of between 300 and 350 were accepted. A 50:50 mixture of pooled, human saliva and a mineral solution was used as the remineralisation medium in all treatment regimens, and the demineralising solution was 1% citric acid, pH 3.8. The four treatments considered were: Group A) Deionised water, Group B) 300 ppm Fluoride, Group C) 0.50 wt % ZnO in deionized water, Group D) 0.50 wt % ZnO in 300 ppm Fluoride. […] The cyclic treatment regimen consisted of five, two-minute acid challenges in the demineralizing solution and three, two-minute treatment periods (with stirring at 350 rpm). After each treatment, the specimens were rinsed with running deionized water and then placed back into the saliva remineralization system. This regimen was repeated for 10 days, after which time the specimens were analysed by remeasuring their microhardness. A further 10 days of cycling was then performed and a 20 day microhardness value measured.
Statistical analysis of the data above in Graph 4 was performed with a one-way analysis of variance using Sigma Stat (3.0) Software. ANOVA indicated a significant difference so pair wise comparisons between the groups was conducted (Student Newman Keuls test).

A short description of assay [4]: Enamel anti-caries softening microhardness study (lactic acid buffer). Further details: species or system human. Conditions: two cycles of 2 minute treatment and two hours 0.1M lactic acid buffer pH 4.5. The protocol:
The study performed involved incubation of human enamel in 0.1M lactic acid buffer (pH 4.5), following a 2 minute treatment with one of the following four formulations: (A) 0.5% suspension of nano ZnO. […] (D) de-ionised water. The zinc oxide used was Nanoshield ZN-3008C as described above in Example 4. Specimens were washed with water in between treatments and erosion procedures. The acid exposure time was two hours, after which the specimens were rinsed in de-ionised water and re-treated with the appropriate formulation for 2 minutes. The specimens then were placed into the lactic acid for a further two hours. After the acid challenge they were washed thoroughly with de-ionised water and the microhardness measured. Six indents were obtained for each enamel specimen and each treatment was performed on six individual specimens (n=6).
The values for enamel hardness have been normalised relative to the individual baseline microhardness values, thus data at subsequent time points reflects softening of the enamel. The error bars in Graph 9 represent standard deviations.

The conditions of assay [5]: repeated acidic erosive challenges; placebo 13.9 μm; cited from earlier work.
Where [6] appears, read: 0.5 wt % in 225 ppm fluoride solution, Graph 6.
Where [7] appears, read: 0.5 wt % in deionised water, no fluoride, Graph 5.

SMILES strings stand for the structures.

In the case of `CC(=O)[O-].CC(=O)[O-].[Zn+2]` [zinc acetate], the “preventing the demineralisation of hydroxyapatite, combination with 225 ppm fluoride compared with 225 ppm fluoride alone” value in assay [1] (setting [6]) is “directionally superior but statistically equivalent to 225 ppm fluoride alone”. In assay [1] (setting [7]), the “preventing demineralisation of hydroxyapatite, compared with water” value was “statistically superior to water”; the “preventing the demineralisation of hydroxyapatite, compared with 225 ppm fluoride” value is “statistically inferior to both the stabilised nanoparticulate zinc oxide and 225 ppm fluoride”. In assay [2], the “decreasing acid dissolution of hydroxyapatite, compared with sodium fluoride” value is “almost as effective as sodium fluoride”.
On to `[F-].[Na+]` [300 ppm F, sodium fluoride], for which, in assay [3] (10 days cycling), the “Change at 10 days (microhardness vs lesion baseline, mean)” value is on record as −64.6. The “Post 10 days (Vickers microhardness, mean)” value in assay [3] (10 days cycling: five 2-min 1% citric acid challenges and three 2-min treatments daily, saliva remineralisation) is 189.5. In assay [3] (20 days cycling), the “Change at 20 days (microhardness vs lesion baseline, mean)” value was −20.1 and the “Post 20 days (Vickers microhardness, mean)” value was found to be 234.0. Also, the “protection from the lactic acid buffer challenge” value in assay [4] is reported as “approximately 70%”. In addition, the “% VHN compared to baseline, After treatment/acid challenge” value in assay [4] (n=6) came out at 70%.
`O=C([O-])CC(O)(CC(=O)[O-])C(=O)[O-].O=C([O-])CC(O)(CC(=O)[O-])C(=O)[O-].[Zn+2].[Zn+2].[Zn+2]` [Zinc citrate, zinc citrate]: in assay [1] (setting [6]), the “preventing the demineralisation of hydroxyapatite, combination with 225 ppm fluoride compared with 225 ppm fluoride alone” value is given as “statistically inferior to fluoride alone” and the “preventing the demineralisation of hydroxyapatite, combination with 225 ppm fluoride compared with water” value is given as “statistically superior to water”. In addition, the “depth of complete mineral loss” value in assay [5] is given as 10.7 μm.
